Experiments:
WT HIV-1 RT = target: T1, WT HIV-1 RT (Human immunodeficiency virus type 1 group M subtype B, UniProt P03366, Q857C); experiment: Pre-steady-state single-turnover kinetics of nucleotide incorporation by WT HIV-1 RT; assay type: biochemical; conditions: for Kd: 18/26-mer dsDNA, 37 °C, read-out: Kd (apparent equilibrium dissociation constant); for Tighter binding (Kd) compared to natural dCTP: Kd dCTP / Kd analog
T1 construct: HIV-1 RT p66 and p51 subunits were expressed and purified as described previously; made in house
Experimental: (§1) Previous kinetic studies[16],[18],[20],[22]–[26] have aimed at understanding the efficiency of incorporation for (−)-FTC-TP or (−)-3TC-TP, how they compete against dCTP, and the effect of resistance mutations, such as M184V. As in our previous work[20],[25],[26], single-turnover kinetic assays were performed by rapidly mixing a pre-incubating solution of 120 nM HIV-1 RT (WT or M184V) and 30 nM 5ʹ-[^32P]-labeled 18/26-mer dsDNA substrate (Methods) with varying concentrations of dCTP, or an active metabolite of NRTIs for different times, before being quenched by 0.37 M EDTA. Representative kinetic plots displaying M184V-catalyzed incorporation of (−)-FTC-TP onto 18/26-mer dsDNA substrate are shown in Fig. 2. […] We determined the pre-steady-state kinetic parameters of maximal nucleotide incorporation rate constants (kp) and apparent equilibrium dissociation constants (Kd) for dCTP, (+)-FTC-TP, (−)-FTC-TP, (+)-3TC-TP and (−)-3TC-TP with WT or M184V HIV-1 RT (Table 1). […] The resulting selectivity factors ((kp/Kd)dCTP/(kp/Kd)NRTI) were determined to be only 1.9 and 7.0-fold higher for dCTP over (−)-FTC-TP and (−)-3TC-TP, respectively.
(§2) HIV-1 RT (120 nM) and 5ʹ-[^32P]-labeled 18/26-mer DNA (30 nM; DNA sequence shown above the 18mer primer without chemical modification) were pre-incubated at 37 °C for 5 min in reaction buffer containing 50 mM Tris-HCl (pH, 7.9), 10 mM MgCl2, 50 mM NaCl, 0.1 mM EDTA, 10% glycerol, 5 mM DTT, and 0.1 µg/mL BSA (all concentrations are final upon mixing). The reactions were initiated by rapidly mixing with varying concentrations of dCTP, FTC-TP, or 3TC-TP on a rapid chemical-quench flow apparatus (KinTek) and quenched with 0.37 M EDTA at various times. The DNA products were analyzed by sequencing gel electrophoresis (17% polyacrylamide, 8 M Urea), and quantitated using a Typhoon Trio (GE Healthcare) and ImageQuant software (Molecular Dynamics). The kinetic data were fit using non-linear regression software KaleidaGraph (Synergy) to a single-exponential equation Product=A1−exp−kobst, where A and kobs represent the reaction amplitude and observed nucleotide incorporation rate constant, respectively. Values for kobs were then plotted against the respective dNTP (or an NRTI triphosphate) concentration and each plot was fit to a hyperbolic equation kobs=kpdNTP∕Kd+dNTP, where kp is the maximal nucleotide incorporation rate constant and Kd is the apparent equilibrium dissociation constant for the binding of dNTP (or an NRTI triphosphate) to the RT and DNA complex. Each set of kinetic parameters (kp, Kd, kp/Kd) are derived from 8 individual experiments where the concentration of nucleotide is variable (i.e. 8 distinct concentrations of dCTP or NRTI). All reported error values are derived from data fitting using non-linear regression software KaleidaGraph (Synergy).

M184V HIV-1 RT [1] = target: T2, M184V HIV-1 RT (Human immunodeficiency virus type 1 group M subtype B, UniProt P03366, M783V/Q857C); experiment: Pre-steady-state single-turnover kinetics of nucleotide incorporation by M184V HIV-1 RT; assay type: biochemical
T2 construct: HIV-1 RT p66 and p51 subunits were expressed and purified as described previously; made in house
Experimental: as §1
(§3) Fig. 2 Determination of kinetic parameters for (−)-FTC-TP incorporation onto 18/26-mer dsDNA catalyzed by the M184V mutant of HIV-1 RT. a A pre-incubated solution of 120 nM M184V and 30 nM 5′-[^32P]-labeled 18/26-mer was mixed with increasing concentrations of (−)-FTC-TP (3.75 µM, ●; 7.5 µM, [drawing 1]; 15 µM, [drawing 2]; 30 µM, x; 60 µM, [drawing 3]; 120 µM, [drawing 4]; 240 µM, [drawing 5]; 480 µM, [drawing 6] ) for various times at 37 °C before being quenched with 0.37 M EDTA.
as §2

M184V HIV-1 RT [2] = experiment: as above; assay type: biochemical; conditions: M184V vs WT RT
Experimental: as §1, §3, §2

HIV-1 M184V = conditions: cited from earlier work; for Resistance conferred by M184V as compared to WT: single amino acid residue mutation M184V
HIV [3] = system: HIV; design: method as in PMID 19225726; conditions: reportedly; cited from earlier work
M184V mutant RT = conditions: up; cited from earlier work
HIV [4] = conditions: clinical trials, monotherapy; cited from earlier work
HIV virus = conditions: initial cell-based screening; cited from earlier work

Nc1ccn([C@H]2C[C@H](O)[C@@H](COP(=O)(O)OP(=O)(O)OP(=O)(O)O)O2)c(=O)n1 [dCTP, deoxycytidine triphosphate]
Kd (WT HIV-1 RT; WT HIV-1 RT): 6.3 ± 0.2 µM
Kd (M184V HIV-1 RT [1]): 8.9 ± 1 µM

Nc1ccn([C@@H]2CS[C@H](COP(=O)(O)OP(=O)(O)OP(=O)(O)O)O2)c(=O)n1 [(−)-3TC-TP]
Kd (WT HIV-1 RT; WT HIV-1 RT): 0.25 ± 0.01 µM
Higher Kd value (lower binding affinity) over (−)-FTC-TP (WT HIV-1 RT; WT RT): 2.5 fold
Tighter binding (Kd) compared to natural dCTP (WT HIV-1 RT; WT RT): 25 fold
Kd (M184V HIV-1 RT [1]): 53 ± 4 µM
Reduction of binding affinity (higher Kd) of M184V compared to WT (M184V HIV-1 RT [2]): 212 fold

Nc1ccn([C@H]2CS[C@@H](CO)O2)c(=O)n1 [3TC, 2ʹ,3ʹ-dideoxy-3ʹ-thiacytidine]
Reduction in potency by M184V in cell-based assays (HIV-1 M184V): > 500 fold
Resistance conferred by M184V as compared to WT (HIV-1 M184V): > 500 fold

Cc1cn([C@@H]2C[C@@H](O)[C@H](CO)O2)c(=O)[nH]c1=O [Telbivudine]
Inhibition of HIV (HIV [3]): does not inhibit HIV

Nc1nc(=O)n([C@H]2CS[C@@H](CO)O2)cc1F [FTC, 2ʹ,3ʹ-dideoxy-5-fluoro-3ʹ-thiacytidine]
Reduction in potency by M184V in cell-based assays (HIV-1 M184V): > 500 fold
Resistance conferred by M184V as compared to WT (HIV-1 M184V): > 500 fold
Reduction in potency by M184V in enzyme-based assays (M184V mutant RT): > 300 fold
Reduction in viral HIV RNA (HIV [4]): 1.7 log
Cytotoxicity versus corresponding (+)-stereoisomer (HIV virus): less cytotoxic
Potency against the HIV virus versus corresponding (+)-stereoisomer (HIV virus): more potent

Nc1nc(=O)n([C@H]2CS[C@@H](COP(=O)(O)OP(=O)(O)OP(=O)(O)O)O2)cc1F [(+)-FTC-TP]
Kd (WT HIV-1 RT; WT HIV-1 RT): 0.19 ± 0.02 µM
Kd (M184V HIV-1 RT [1]): 1.8 ± 0.3 µM

Nc1nc(=O)n([C@@H]2CS[C@H](COP(=O)(O)OP(=O)(O)OP(=O)(O)O)O2)cc1F [(−)-FTC-TP]
Binding affinity increase (tighter binding) over (−)-3TC-TP (WT HIV-1 RT; WT HIV-1 RT): 2.5 fold
Higher incorporation efficiency (kp/Kd) than (−)-3TC-TP (WT HIV-1 RT; WT HIV-1 RT): 3.7 fold
Kd (WT HIV-1 RT; WT HIV-1 RT): 0.1 ± 0.01 µM
Tighter binding (Kd) compared to natural dCTP (WT HIV-1 RT; WT RT): 63 fold
Kd (M184V HIV-1 RT [1]): 28 ± 2 µM
Reduction of binding affinity (higher Kd) of M184V compared to WT (M184V HIV-1 RT [2]): 280 fold

Nc1ccn([C@H]2CS[C@@H](COP(=O)(O)OP(=O)(O)OP(=O)(O)O)O2)c(=O)n1 [(+)-3TC-TP]
Kd (WT HIV-1 RT; WT HIV-1 RT): 0.202 ± 0.004 µM
Kd (M184V HIV-1 RT [1]): 5.4 ± 1.2 µM

Reference: publication PMC6910994, “Elucidating molecular interactions of L-nucleotides with HIV-1 reverse transcriptase and mechanism of M184V-caused drug resistance” (Communications Biology, 2019)
